Read-outs that look alike come from different tables or passages of the source. Marks after values point to notes of the source that are not given here.

Data on five compounds can be found in patent publication US11197904B2, “Pharmaceutical compositions for preventions and managements of dementia, infectious diseases, cancers, periodontitis, dental caries, diabetes, obesity, osteoporosis and chronic pain and methods thereof” (Chung Shan Medical University, priority 2018, dated 2021).

Assay [1] concerns Lactobacillus reuteri (L.r.). The experiment in a line: Proliferation of the probiotic Lactobacillus reuteri (OD600). The note with it: 3 to 10 times higher than the listed IC50; Table 1. Format: cell-based.
For assay [2], the system named is Porphyromonas gingivalis (P.g.).
Assay [3] concerns Streptococcus mutans (S.m., UA159).
In assay [4] the test system is Pseudomonas aeruginosa (P.a.).
The test system of assay [5] is Staphylococcus aureus (S.a).
Where [6] appears, read: read-out: IC50, P. g., metals alone.
The mark [7] stands for this setting: read-out: IC50, UA159, metals alone.
Setting [8] is: read-out: IC50, P. a., metals alone.
[9] abbreviates: read-out: IC50, S. a., metals alone.

Take `[Cl][Mn][Cl]` [MnCl2]: the “Inhibition on proliferation of Lactobacillus reuteri” value (“Inhibition on proliferation” for short) in assay [1] is recorded as “MnCl2*”. Also, the IC50 in assay [2] (setting [6]) is 990 µM; in assay [3] (setting [7]), 1440 µM; in assay [4] (setting [8]) it was > 2000 µM; in assay [5] (setting [9]), 2740 µM.
For `[Cl][Ag]` [AgCl], the “Inhibition on proliferation” value in assay [1] was “AgCl*”. The IC50 in assay [2] (setting [6]) is 14 µM; in assay [2] (read-out: IC50 of single drug, Table 14, P. g., drug alone), 14 µM; in assay [3] (setting [7]), 35 µM; in assay [3] (read-out: IC50 of single drug, Table 14, UA159, drug alone), 35 µM; in assay [4] (setting [8]), 44 µM; in assay [4] (read-out: IC50 of single drug, Table 14, P. a., drug alone) it was 42 µM. For the same compound, the IC50 worked out at 28 µM in assay [5] (setting [9]) and 56 µM in assay [5] (read-out: IC50 of single drug, Table 14, S. a., drug alone).
With `N.N.N.N.N.N.N.N.N.N.N.N.N.N.[Cl-].[Cl-].[Cl-].[Cl-].[Cl-].[Cl-].[O-2].[O-2].[Ru+3].[Ru+3].[Ru+4]` [Ruthenium red], the “Inhibition on proliferation” value in assay [1] was “RuR*,”. Further, the IC50 in assay [2] (setting [6]) was 74 µM; in assay [3] (setting [7]), 644 µM; in assay [4] (setting [8]), 32 µM; in assay [5] (setting [9]), > 116 µM.
Consider `[Cl-].[Cl-].[Sr+2]` [SrCl2], for which, in assay [1], the “Inhibition on proliferation” value is listed as “SrCl2*”. The IC50 in assay [2] (setting [6]) was > 3000 µM; in assay [3] (setting [7]), > 3000 µM; in assay [4] (setting [8]), 4190 µM; in assay [5] (setting [9]), 3590 µM.
As for `O=S(=O)([O-])[O-].[Zn+2]` [ZnSO4], the “Inhibition on proliferation” value in assay [1] was “ZnSO4*”. Besides, the IC50 in assay [2] (setting [6]) is 1060 µM; in assay [3] (setting [7]), 961 µM; in assay [4] (setting [8]) it was 1160 µM; in assay [5] (setting [9]), 939 µM.

A word on the IC50: it is the concentration needed to halve the response being measured.
